As a reminder, the inhibition is the drop in the measured response relative to a control, in per cent.

These results are taken from PMC9609996, “SAR Study and Molecular Mechanism Investigation of Novel Naphthoquinone-furan-2-cyanoacryloyl Hybrids with Antitumor Activity” (Pharmaceutics, 2022).

Common to all, as to assay type: cell-based, human
One assay has as its system PC3. Kind of assay: CCK-8 anti-proliferation assay, PC3. The settings on record: mean ± SD; for inhibition at 20 µM: Homo sapiens, PC-3, 20 μM, read-out: Inhibition Rate (%) at 20 μM PC3. As to the method:
(§1) Human cervical cancer HeLa, human prostate cancer PC3, human colonic carcinoma HCT116, human lung carcinoma A549, human breast cancer MDA-MB-231, mouse melanoma B16, human ovarian cancer SKOV3, human hepatoma Hep3B, and human liver L02 cells were purchased from the Cell Bank of Shanghai Institute of Biochemistry and Cell Biology, Chinese Academy of Sciences (Shanghai, China). The HeLa, A549, B16, PC3, MDA-MB-231, HCT116, and L02 cells were cultured in Dulbecco’s modified Eagle medium (DMEM, Gibco Inc.; Gaithersburg, MD, USA). All cultures were supplied with 10% fetal bovine serum (FBS; YHSM, Beijing, China), 100 IU/mL of penicillin, and 100 μg/mL of streptomycin, and cells were incubated at 37 °C in an atmosphere of 5% CO2.
(§2) A CCK-8 kit (MCE, USA) was used to perform a CCK-8 assay. Cells were plated and grown in the 96-well plates for the indicated period (48 h) in the incubator, followed by an incubation with the CCK-8 solutions for 1–4 h. Subsequently, the absorbance (450 nm) was measured by a microplate reader. The median inhibitory concentration (IC50) was determined from the dose–response curve. Experiments were performed in a triplicate.

A further assay concerns HeLa. The assay can be described thus: CCK-8 anti-proliferation assay, HeLa. The settings on record: 20 μM, mean ± SD; for inhibition at 20 µM: Homo sapiens, read-out: Inhibition Rate (%) at 20 μM HeLa. The procedure:
as §1, §2
(Tetrazolium assays rely on reduction of a dye to a coloured formazan, in cell work by metabolically active cells.)

The next assay deals with HCT116. Kind of assay: CCK-8 anti-proliferation assay, HCT116. The settings on record: mean ± SD; for inhibition at 20 µM: Homo sapiens, HCT-116, 20 μM, read-out: Inhibition Rate (%) at 20 μM HCT116. As to the method: as §1, §2
A further assay deals with A549. Kind of assay: CCK-8 anti-proliferation assay, A549. The conditions noted are these: mean ± SD; for inhibition at 20 µM: Homo sapiens, A549, 20 μM, read-out: Inhibition Rate (%) at 20 μM A549. As to the method: as §1, §2

For `O=C(NC1CCN(Cc2ccccc2)CC1)c1ccc(C2=CC(=O)c3ccccc3C2=O)o1` [Compound 9a, N-(1-benzylpiperidin-4-yl)-5-(1,4-dioxo-1,4-dihydronaphthalen-2-yl)furan-2-carboxamide], the inhibition at 20 µM was 2.39 ± 0.09% with PC3, 42.87 ± 0.22% in the assay with HeLa, 33.71 ± 0.13% in the assay with HCT116 and 20.7 ± 0.49% with A549.
Taken in the same sequence, the figures for `COc1cc(-c2ccc(C(=O)NC3CCN(Cc4ccccc4)CC3)o2)c(OC)c2ccccc12` [Compound 8a, N-(1-benzylpiperidin-4-yl)-5-(1,4-dimethoxynaphthalen-2-yl)furan-2-carboxamide] were 15.5 ± 0.29%, 20.86 ± 0.18%, 12.4 ± 0.15% and 24.1 ± 0.35%.
Taken in the same sequence, the figures for `COc1cc(-c2ccc(C(=O)NC(C)c3ccccc3)o2)c(OC)c2ccccc12` (centres unmarked) [Compound 8b, 5-(1,4-Dimethoxynaphthalen-2-yl)-N-(1-phenylethyl)furan-2-carboxamide] were 24.99 ± 0.19%, 19.33 ± 0.18%, 2.17 ± 0.02% and 7.87 ± 0.11%.
Taken in the same sequence, the figures for `COc1cc(-c2ccc(/C=C(\C#N)C(=O)N3CCc4ccccc4C3)o2)c(OC)c2ccccc12` [Compound 4b, (E)-3-(5-(1,4-dimethoxynaphthalen-2-yl)furan-2-yl)-2-(1,2,3,4-tetrahydroisoquinoline-2-carbonyl)acrylonitrile] were 3.88 ± 0.13%, 11.71 ± 0.04%, 19.6 ± 0.65% and 24.2 ± 0.31%.
For the molecule `COc1cc(-c2ccc(/C=C(\C#N)C(=O)NCc3cccc(C(F)(F)F)c3)o2)c(OC)c2ccccc12` [Compound 4g, (E)-2-cyano-3-(5-(1,4-dimethoxynaphthalen-2-yl)furan-2-yl)-N-(3-(trifluoromethyl)benzyl)acrylamide], the inhibition at 20 µM in the assay on PC3 was 15.38 ± 0.01%; with HeLa it was 16.1 ± 0.17%; in the assay with HCT116, 7.69 ± 0.02%; in the assay with A549 it was 4.87 ± 0.3%.
Taken in the same sequence, the figures for `COc1cc(-c2ccc(/C=C(\C#N)C(=O)NC3CCN(Cc4ccccc4)CC3)o2)c(OC)c2ccccc12` [Compound 4a, (E)-N-(1-benzylpiperidin-4-yl)-2-cyano-3-(5-(1,4-dimethoxynaphthalen-2-yl)furan-2-yl)acrylamide] were 15.5 ± 0.17%, 13.6 ± 0.15%, 5.69 ± 0.23% and 16.3 ± 0.22%.
Taken in the same sequence, the figures for `N#C/C(=C\c1ccc(C2=CC(=O)c3ccccc3C2=O)o1)C(=O)N1CCc2ccccc2C1` [Compound 5b, (E)-3-(5-(1,4-dioxo-1,4-dihydronaphthalen-2-yl)furan-2-yl)-2-(1,2,3,4-tetrahydroisoquinoline-2-carbonyl)acrylonitrile] were 17.8 ± 0.33%, 20.5 ± 0.28%, 8.83 ± 0.1% and 18.4 ± 0.82%.
Consider `COc1cc(-c2ccc(C(=O)NCCC(=O)N3CCOCC3)o2)c(OC)c2ccccc12` [Compound 8c, 5-(1,4-Dimethoxynaphthalen-2-yl)-N-(3-morpholino-3-oxopropyl)furan-2-carboxamide], for which the inhibition at 20 µM with PC3 was found to be 4.65 ± 0.56%; in the assay with HCT116 it was 4.73 ± 0.47%; in the assay with A549, 14.1 ± 0.32%.
As for `CC1(C)CC(NC(=O)/C(C#N)=C/c2ccc(C3=CC(=O)c4ccccc4C3=O)o2)CC(C)(C)N1` [Compound 5e, (E)-2-cyano-3-(5-(1,4-dioxo-1,4-dihydronaphthalen-2-yl)furan-2-yl)-N-(2,2,6,6-tetramethylpiperidin-4-yl)acrylamide], the inhibition at 20 µM is 19.3 ± 0.28% in the assay on PC3, 29.73 ± 0.07% in the assay with HeLa, 5.97 ± 95% in the assay with HCT116 and 19.8 ± 0.32% in the assay with A549.
Taken in the same sequence, the figures for `CC(NC(=O)c1ccc(C2=CC(=O)c3ccccc3C2=O)o1)c1ccccc1` (centres unmarked) [Compound 9b, 5-(1,4-Dioxo-1,4-dihydronaphthalen-2-yl)-N-(1-phenylethyl)furan-2-carboxamide] were 12.82 ± 0.01%, 18.65 ± 0.16%, 7.22 ± 0.34% and 8.8 ± 0.04%.
Regarding “(E)-2-cyano-3-(5-(1,4-dioxo-1,4-dihydronaphthalen-2-yl)furan-2-yl)-N-(3-(trifluoromethyl)phenyl)acrylamide [Compound 5g]”, the “Inhibition Rate (%) at 20 μM PC3” value with PC3 (20 μM) was 11.20 ± 0.02%. The “Inhibition Rate (%) at 20 μM HeLa” value with HeLa was found to be 27.98 ± 0.36%. Further, in the assay with HCT116 (20 μM), the “Inhibition Rate (%) at 20 μM HCT116” value is recorded as 28.25 ± 0.04%. Besides, the “Inhibition Rate (%) at 20 μM A549” value with A549 (20 μM) is 32.35 ± 0.95%.
`COC(=O)c1ccc(C2=CC(=O)c3ccccc3C2=O)o1` [Compound 6a, Methyl 5-(1,4-dioxo-1,4-dihydronaphthalen-2-yl)furan-2-carboxylate]: the inhibition at 20 µM with PC3 turned out to be 6.93 ± 0.79%; in the assay on HeLa it was 26.1 ± 0.66%; with HCT116, 17.67 ± 0.06%; in the assay with A549, 2.15 ± 0.37%.
Regarding `COc1cc(-c2ccc(C(=O)Nc3ccc(CN4CCN(C)CC4)c(C(F)(F)F)c3)o2)c(OC)c2ccccc12` [Compound 8h, 5-(1,4-Dimethoxynaphthalen-2-yl)-N-(4-((4-methylpiperazin-1-yl)methyl)-3-(trifluoromethyl)phenyl)furan-2-carboxamide], the inhibition at 20 µM in the assay on PC3 came to 16.5 ± 0.97%; with HeLa it was 28.47 ± 0.1%; with HCT116, 19.6 ± 0.34%; in the assay with A549, 21.6 ± 0.39%.
Take `COc1cc(-c2ccc(C(=O)NC3CCC(F)(F)CC3)o2)c(OC)c2ccccc12` [Compound 8f, N-(4,4-difluorocyclohexyl)-5-(1,4-dimethoxynaphthalen-2-yl)furan-2-carboxamide]: the inhibition at 20 µM in the assay with PC3 stood at 17.72 ± 0.12%; in the assay on HeLa, 30.1 ± 0.39%; in the assay on HCT116, 27.19 ± 0.15%; with A549, 28.3 ± 0.33%.
Taken in the same sequence, the figures for `N#C/C(=C\c1ccc(C2=CC(=O)c3ccccc3C2=O)o1)C(=O)N1CC2CCCCC2C1` (centres unmarked) [Compound 5f, (E)-3-(5-(1,4-dioxo-1,4-dihydronaphthalen-2-yl)furan-2-yl)-2-(octahydro-1H-isoindole-2-carbonyl)acrylonitrile] were 11.13 ± 0.03%, 1.9 ± 0.72%, 3.41 ± 0.26% and 13.9 ± 0.14%.
Taken in the same sequence, the figures for `N#C/C(=C\c1ccc(C2=CC(=O)c3ccccc3C2=O)o1)C(=O)NCCc1cccs1` [Compound 5d, (E)-2-cyano-3-(5-(1,4-dioxo-1,4-dihydronaphthalen-2-yl)furan-2-yl)-N-(2-(thiophen-2-yl)ethyl)acrylamide] were 15.5 ± 0.2%, 5.61 ± 0.24%, 26.8 ± 0.94% and 17.2 ± 0.35%.
With `COc1cc(-c2ccc(/C=C(\C#N)C(=O)N3CC4CCCCC4C3)o2)c(OC)c2ccccc12` (centres unmarked) [Compound 4f, (E)-3-(5-(1,4-dimethoxynaphthalen-2-yl)furan-2-yl)-2-(octahydro-1H-isoindole-2-carbonyl)acrylonitrile], the results for the inhibition at 20 µM in the assay on PC3 and with HCT116 were 11.8 ± 0.79% and 43.7 ± 0.84%, respectively.
